What all share (format): biochemical
The target in one assay is T1, MMP-1 (Homo sapiens, UniProt P03956).
T1 sequence (P03956 100-469): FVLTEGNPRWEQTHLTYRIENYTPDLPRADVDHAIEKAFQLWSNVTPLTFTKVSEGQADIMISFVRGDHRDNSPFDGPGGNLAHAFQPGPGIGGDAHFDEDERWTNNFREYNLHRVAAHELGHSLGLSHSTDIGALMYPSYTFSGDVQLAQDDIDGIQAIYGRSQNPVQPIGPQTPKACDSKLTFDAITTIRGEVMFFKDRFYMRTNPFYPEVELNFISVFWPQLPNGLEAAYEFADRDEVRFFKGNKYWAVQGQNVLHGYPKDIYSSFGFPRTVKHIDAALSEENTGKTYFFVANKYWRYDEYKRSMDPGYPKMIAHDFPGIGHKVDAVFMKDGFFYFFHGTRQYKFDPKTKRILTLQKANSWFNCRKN
Kind of assay: MMP-1 inhibition (thiopeptide or fluorescent peptide substrate assay). The conditions noted are these: for IC50: read-out: MMP-1 IC50; for inhibition at 1 µM: read-out: MMP-1 % inhibition, footnote: 1µM.

For the next assay, the target named is MMP-9 (Homo sapiens, UniProt P14780). Kind of assay: MMP-9 inhibition (thiopeptide or fluorescent peptide substrate assay). The conditions noted are these: for IC50: read-out: MMP-9 IC50; for inhibition at 1 µM: read-out: MMP-9 % inhibition, footnote: 1µM.
The next assay concerns the target MMP-13 (Homo sapiens, UniProt P45452). Kind of assay: MMP-13 inhibition (thiopeptide or fluorescent peptide substrate assay). The conditions noted are these: for inhibition at 1 µM: read-out: MMP-13 % inhibition, footnote: 1µM.
The next assay deals with TACE (Homo sapiens, UniProt P78536). As to the kind of experiment: TACE inhibition (fluorescent peptidyl substrate). The conditions noted are these: for inhibition at 1 µM: at 1µM concentration.

Where two headings read alike, the source gives them in different places.

Chain of TACE (P78536 215-824): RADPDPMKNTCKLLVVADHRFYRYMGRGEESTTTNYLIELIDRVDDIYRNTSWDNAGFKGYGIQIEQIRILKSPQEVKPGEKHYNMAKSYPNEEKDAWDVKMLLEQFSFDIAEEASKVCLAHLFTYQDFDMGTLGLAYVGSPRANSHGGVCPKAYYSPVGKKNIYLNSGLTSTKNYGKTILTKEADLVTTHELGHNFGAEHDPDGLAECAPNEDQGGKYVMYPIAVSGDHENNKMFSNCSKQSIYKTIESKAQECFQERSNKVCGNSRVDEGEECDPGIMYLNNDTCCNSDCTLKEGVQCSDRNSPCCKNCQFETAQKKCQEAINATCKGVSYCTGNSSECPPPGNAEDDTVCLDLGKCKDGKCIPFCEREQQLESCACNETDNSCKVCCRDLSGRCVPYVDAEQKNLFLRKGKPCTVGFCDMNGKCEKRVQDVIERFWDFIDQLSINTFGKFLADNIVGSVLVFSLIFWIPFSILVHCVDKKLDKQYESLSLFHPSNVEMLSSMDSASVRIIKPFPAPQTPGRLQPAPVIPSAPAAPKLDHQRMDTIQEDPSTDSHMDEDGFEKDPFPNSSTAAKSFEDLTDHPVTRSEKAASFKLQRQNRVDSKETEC
Chain of MMP-9 (P14780 94-707): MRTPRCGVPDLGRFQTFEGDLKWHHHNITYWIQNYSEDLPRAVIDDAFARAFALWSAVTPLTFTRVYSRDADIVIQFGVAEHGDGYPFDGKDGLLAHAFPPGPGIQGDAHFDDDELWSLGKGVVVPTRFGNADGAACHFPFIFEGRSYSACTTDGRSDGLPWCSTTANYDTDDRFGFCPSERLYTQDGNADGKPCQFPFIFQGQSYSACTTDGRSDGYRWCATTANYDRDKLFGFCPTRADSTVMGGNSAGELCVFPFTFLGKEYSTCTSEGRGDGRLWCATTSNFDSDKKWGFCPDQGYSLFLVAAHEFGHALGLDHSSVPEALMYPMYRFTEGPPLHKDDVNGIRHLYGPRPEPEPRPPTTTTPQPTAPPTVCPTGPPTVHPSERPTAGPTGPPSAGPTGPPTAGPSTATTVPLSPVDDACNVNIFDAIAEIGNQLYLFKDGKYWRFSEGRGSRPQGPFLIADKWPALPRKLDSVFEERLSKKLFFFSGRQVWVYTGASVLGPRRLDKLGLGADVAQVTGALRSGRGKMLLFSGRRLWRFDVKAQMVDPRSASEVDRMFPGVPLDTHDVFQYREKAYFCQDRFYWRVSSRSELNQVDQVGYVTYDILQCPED
Description for MMP-13: The enzyme activity is measured by the rate of the color increase. The thiopeptide substrate is made up fresh as a 20 mM stock in 100% DMSO and the DTNB is dissolved in 100% DMSO as a 100 mM stock and stored in the dark at room temperature. Both the substrate and DTNB are diluted together to 1 mM with substrate buffer (50 mM HEPES pH 7.5, 5 mM CaCl2) before use. […] Alternatively, a fluorescent peptide substrate is used. In this assay, the peptide substrate contains a fluorescent group and a quenching group. Upon cleavage of the substrate by an MMP, the fluorescence that is generated is quantitated on the fluorescence plate reader. […] The substrate is dissolved in methanol and stored frozen in 1 mM aliquots. For the assay, substrate and enzymes are diluted in HCBC buffer to the desired concentrations. Compounds are added to the 96 well plate containing enzyme and the reaction is started by the addition of substrate. […] For either the thiopeptide or fluorescent peptide assays, the slope of the line is calculated and represents the reaction rate. […] The mean (x±sem) of the control rate is calculated and compared for statistical significance (p<0.05) with drug-treated rates using Dunnett's multiple comparison test.

As a reminder, the IC50 is the concentration that inhibits the measured activity by half. `COc1ccc(S(=O)(=O)N(Cc2cccnc2)c2c(C)cc(-c3ccccc3C=NO)cc2C(=O)NO)cc1` [Example 243, 2'-(Hydroxyimino-methyl)-4-[(4-methoxy-benzenesulfonyl)-pyridin-3-ylmethyl-amino]-5-methyl-biphenyl-3-carboxylic acid hydroxyamide]: the IC50 on MMP-1 came out at 528 nM; at MMP-9, 6.6 nM; at MMP-13 (read-out: MMP-13 IC50), 3.1 nM; at TACE (read-out: TACE IC50), 66 nM.

Take `COc1ccc(S(=O)(=O)N(Cc2cccnc2)c2c(C)cc(-c3cccc(C=NO)c3)cc2C(=O)NO)cc1` [Example 246, 3'-(Hydroxyimino-methyl)-4-[(4-methoxy-benzenesulfonyl)-pyridin-3-ylmethyl-amino]-5-methyl-biphenyl-3-carboxylic acid hydroxyamide]: the IC50 at MMP-1 worked out at 106 nM; on MMP-9, 6 nM; at MMP-13 (read-out: MMP-13 IC50) it was 3.6 nM; at TACE (read-out: TACE IC50), 56 nM.

Turning to `COc1ccc(S(=O)(=O)N(Cc2cccnc2)c2c(C)cc(-c3ccc(C=NO)cc3)cc2C(=O)NO)cc1` [Example 249, 4'-(Hydroxyimino-methyl)-4-[(4-methoxy-benzenesulfonyl)-pyridin-3-ylmethyl-amino]-5-methyl-biphenyl-3-carboxylic acid hydroxyamide], the IC50 is 231 nM on MMP-1, 2.8 nM on MMP-9, 6 nM at MMP-13 (read-out: MMP-13 IC50) and 100 nM on TACE (read-out: TACE IC50).

With `COc1ccc(S(=O)(=O)N(Cc2cccnc2)c2c(C)cc(-c3ccccc3C(F)(F)F)cc2C(=O)NO)cc1` [Example 252, 4-[(4-Methoxy-benzenesulfonyl)-pyridin-3-ylmethyl-amino]-5-methyl-2'-trifluoromethyl-biphenyl-3-carboxylic acid hydroxyamide], the IC50 on MMP-1 is 652 nM; on MMP-9, 15 nM; on MMP-13 (read-out: MMP-13 IC50) it was 10 nM; on TACE (read-out: TACE IC50), 346 nM.

In the case of `COc1ccc(S(=O)(=O)N(Cc2cccnc2)c2c(C)cc(-c3ccco3)cc2C(=O)NO)cc1` [Example 255, 5-Furan-2-yl-N-hydroxy-2-[(4-methoxy-benzenesulfonyl)-pyridin-3-ylmethyl-amino]-3-methyl-benzamide], the IC50 was 48 nM at MMP-1, 7.1 nM at MMP-9, 3.2 nM at MMP-13 (read-out: MMP-13 IC50) and 65 nM at TACE (read-out: TACE IC50).

On to `COc1ccc(S(=O)(=O)N(Cc2cccnc2)c2c(C)cc(-c3sccc3C=NO)cc2C(=O)NO)cc1` [Example 258, N-Hydroxy-5-[3-(hydroxyimino-methyl)-thiophen-2-yl]-2-[(4-methoxy-benzenesulfonyl)-pyridin-3-ylmethyl-amino]-3-methyl-benzamide], for which the half-inhibitory concentration (IC50) on MMP-1 was determined as 169 nM; on MMP-9, 8 nM; on MMP-13 (read-out: MMP-13 IC50), 7 nM; at TACE (read-out: TACE IC50), 110 nM.

Regarding `COc1ccc(S(=O)(=O)N(Cc2cccnc2)c2c(C)cc(-c3ccc(Cl)s3)cc2C(=O)NO)cc1` [Example 261, 5-(5-Chloro-thiophen-2-yl)-N-hydroxy-2-[(4-methoxy-benzenesulfonyl)-pyridin-3-ylmethyl-amino]-3-methyl-benzamide], the IC50 at MMP-1 was determined as 247 nM; on MMP-9, 1.3 nM; on MMP-13 (read-out: MMP-13 IC50), 2.8 nM; at TACE (read-out: TACE IC50) it was 54 nM.

As for `COc1ccc(S(=O)(=O)N(Cc2cccnc2)c2c(C)cc(-c3ccc(C(C)=O)s3)cc2C(=O)NO)cc1` [Example 264, 5-(5-Acetyl-thiophen-2-yl)-N-hydroxy-2-[(4-methoxy-benzenesulfonyl)-pyridin-3-ylmethyl-amino]-3-methyl-benzamide], the IC50 worked out at 159 nM at MMP-1, 3.7 nM on MMP-9, 6.4 nM at MMP-13 (read-out: MMP-13 IC50) and 77 nM on TACE (read-out: TACE IC50).

As for `C=Cc1cc(C)c(N(Cc2ccccc2)S(=O)(=O)c2ccc(OC)cc2)c(C(=O)NO)c1` [Example 267, 2-[Benzyl-(4-methoxy-benzenesulfonyl)-amino]-N-hydroxy-3-methyl-5-vinyl-benzamide], the IC50 at MMP-1 stood at 59 nM; at MMP-9, 3 nM; on MMP-13 (read-out: MMP-13 IC50), 13 nM; at TACE (read-out: TACE IC50), 136 nM.

Regarding `CCc1cc(C)c(N(Cc2cccnc2)S(=O)(=O)c2ccc(OC)cc2)c(C(=O)NO)c1` [Example 277, 5-Ethyl-N-hydroxy-2-[(4-methoxy-benzenesulfonyl)-pyridin-3-ylmethyl-amino]-3-methyl-benzamide], the IC50 worked out at 56 nM at MMP-1, 4 nM on MMP-9, 4 nM at MMP-13 (read-out: MMP-13 IC50) and 34 nM on TACE (read-out: TACE IC50).

For `COc1ccc(S(=O)(=O)N(Cc2cccnc2)c2c(C)cc(-c3cccnc3)cc2C(=O)NO)cc1` [Example 285, N-Hydroxy-2-[(4-methoxy-benzenesulfonyl)-pyridin-3-ylmethyl-amino]-3-methyl-5-pyridin-3-yl-benzamide], the IC50 on MMP-1 is 312 nM; on MMP-9 it was 6 nM; at MMP-13 (read-out: MMP-13 IC50) it was 9.8 nM; at TACE (read-out: TACE IC50) it was 61 nM.

Usually inhibition stands for the percentage by which the read-out fell short of the control. Turning to `COc1ccc(S(=O)(=O)N(Cc2ccccc2)c2c(C)ccc(C)c2C(=O)NO)cc1` [Example 292, 2-[Benzyl-(4-methoxy-benzenesulfonyl)-amino]-N-hydroxy-3,6-dimethyl-benzamide], the results for the IC50 at MMP-1, on MMP-9 and at MMP-13 (read-out: MMP-13 IC50) were 184 nM, 8 nM and 29 nM, respectively. Further, on TACE, the inhibition at 1 µM was determined as 7%.

With `COc1ccc(S(=O)(=O)N(Cc2cccnc2)c2c(C)ccc(C)c2C(=O)NO)cc1` [Example 297, N-Hydroxy-2-[(4-methoxy-benzenesulfonyl)-pyridin-3-ylmethyl-amino]-3,6-dimethyl-benzamide], the IC50 was found to be 297 nM at MMP-1, 9 nM on MMP-9 and 14 nM at MMP-13 (read-out: MMP-13 IC50). At TACE, testing at 1 µM gave an inhibition of 58%.

For the compound `COc1ccc(S(=O)(=O)N(Cc2cccnc2)c2c(C)cc(-c3cc(-c4ccc(C)o4)no3)cc2C(=O)NO)cc1` [Example 301, N-Hydroxy-2-[(4-methoxy-benzenesulfonyl)-pyridin-3-ylmethyl-amino]-3-methyl-5-[3-(5-methyl-furan-2-yl)-isoxazol-5-yl]-benzamide], the IC50 at MMP-1 worked out at 211 nM; at MMP-9 it was 6.9 nM; at MMP-13 (read-out: MMP-13 IC50) it was 8.7 nM; on TACE (read-out: TACE IC50) it was 1480 nM.

As for `Cc1cc(Br)cc(C(=O)NO)c1N(Cc1ccccc1)S(=O)(=O)c1ccc(OCc2ccccc2)cc1` [Example 308], the inhibition at 1 µM came out at 10% on MMP-1, 45% on MMP-9 and 36% at MMP-13. The IC50 at TACE (read-out: TACE IC50) came to 285 nM.

As for `COc1ccc(S(=O)(=O)N(C)c2c(CN3CCOCC3)cccc2C(=O)NO)cc1` [Example 309, N-Hydroxy-2-[(4-methoxy-benzenesulfonyl)-methyl-amino]-3-morpholin-4-ylmethyl-benzamide], the IC50 came to 608 nM at MMP-1, 5 nM at MMP-9, 14 nM on MMP-13 and 174 nM at TACE.

In the case of `COc1ccc(S(=O)(=O)N(C)c2c(CN3CCCC3)cccc2C(=O)NO)cc1` [Example 310, N-Hydroxy-2-[(4-methoxy-benzenesulfonyl)-methyl-amino]-3-pyrrolidin-1-ylmethyl-benzamide], the 50% inhibitory concentration (IC50) came out at 4800 nM on MMP-1, 21 nM at MMP-9, 101 nM on MMP-13 (read-out: MMP-13 IC50) and 154 nM on TACE (read-out: TACE IC50).

For the compound `COc1ccc(S(=O)(=O)N(C)c2c(Cn3ccnc3)cccc2C(=O)NO)cc1` [Example 311, N-Hydroxy-3-imidazol-1-ylmethyl-2-[(4-methoxy-benzenesulfonyl)-methyl-amino]-benzamide], the IC50 at MMP-1 worked out at 781 nM; at MMP-9, 10 nM; on MMP-13 it was 43 nM; at TACE, 157 nM.

With `COc1ccc(S(=O)(=O)N(C)c2c(CN3CCCC3)cc(Br)cc2C(=O)NO)cc1` [Example 314, 5-Bromo-N-hydroxy-2-[(4-methoxy-benzenesulfonyl)-methylamino]-3-pyrrolidin-1-ylmethyl-benzamide], the IC50 was found to be 954 nM on MMP-1, 8.4 nM on MMP-9, 13 nM at MMP-13 (read-out: MMP-13 IC50) and 27 nM on TACE (read-out: TACE IC50).

As for `COc1ccc(S(=O)(=O)N(Cc2cccnc2)c2c(CN3CCCC3)cccc2C(=O)NO)cc1` [Example 320, N-Hydroxy-2-[(4-methoxy-benzenesulfonyl)-pyridin-3-ylmethyl-amino]-3-pyrrolidin-1-ylmethyl-benzamide], the IC50 on MMP-1 amounted to 2190 nM; on MMP-9, 46 nM; on MMP-13 (read-out: MMP-13 IC50), 150 nM; on TACE (read-out: TACE IC50) it was 142 nM.

Consider `CCCCCCCCN(c1c(CN2CCN(C)CC2)cccc1C(=O)NO)S(=O)(=O)c1ccc(OC)cc1` [Example 325, N-Hydroxy-2-[(4-methoxy-benzenesulfonyl)-octyl-amino]-3-(4-methyl-piperazin-1-ylmethyl)-benzamide], for which the inhibition at 1 µM on MMP-1 stood at 15%; on MMP-9, 49%; on MMP-13 it was 60%; at TACE, 47%. In addition, the figures for the IC50 at MMP-9, at MMP-13 (read-out: MMP-13 IC50) and on TACE (read-out: TACE IC50) were 2.4 nM, 1.9 nM and 1640 nM, respectively.

The values are drawn from patent publication EP0938471B1, “THE PREPARATION AND USE OF ORTHO-SULFONAMIDO ARYL HYDROXAMIC ACIDS AS MATRIX METALLOPROTEINASE AND TACE INHIBITORS” (priority 1996, dated 1998).
